Tests used:
Format in all cases: in vivo
Setaria viridis = assay: Post-emergence herbicidal action, SETVI; design: key: % herbicidal action vs untreated; 100 = plants died, 0 = like control
In short: (§1)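 Foliar application at the one-leaf stage of greenhouse-grown plants in sandy loam; compound applied as WP or EC in 600–800 l/ha water containing 0.2% wetting agent. Scores are visual percentages (0% like control, 100% plants died) taken after roughly 3 weeks.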

Stellaria media = assay: Pre-emergence herbicidal action, STEME; design: key to Herbicidal action against STEME: % activity: 100 = plants have died, 0 = like control plants; conditions: for herbicidal activity STEME: dosage 320 g/ha, scored visually after 3 weeks vs untreated controls (100% = plants have died); for Herbicidal action against STEME: comparative experiment, 20 g of a.i./ha
In short: (§2)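 Herbicidal activity is expressed in percent, scored by eye after a 3-week greenhouse period, with 0% matching untreated plants and 100% meaning death. Compounds, as wettable powders or emulsion concentrates, are applied pre-emergence to the covering soil.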

Amaranthus retroflexus = assay: Pre-emergence herbicidal action, AMARE; design: key to Herbicidal action against AMARE: % activity: 100 = plants have died, 0 = like control plants; conditions: for herbicidal activity AMARE: dosage 320 g/ha, scored visually after 3 weeks vs untreated controls (100% = plants have died); for Herbicidal action against AMARE: comparative experiment
In short: as §2

Abutilon theophrasti = assay: Pre-emergence herbicidal action, ABUTH; design: key to Herbicidal action against ABUTH: % activity: 100 = plants have died, 0 = like control plants; conditions: for herbicidal activity ABUTH: dosage 320 g/ha, scored visually after 3 weeks vs untreated controls (100% = plants have died)
In short: as §2

Pharbitis purpurea = assay: Pre-emergence herbicidal action, PHBPU; conditions: dosage 320 g/ha, scored visually after 3 weeks vs untreated controls (100% = plants have died)
In short: as §2

Alopecurus myosuroides = assay: Post-emergence herbicidal action, ALOMY; design: key: % herbicidal action vs untreated; 100 = plants died, 0 = like control; conditions: for Herbicidal action against ALOMY: comparative experiment
In short: as §1

SMILES | herbicidal action SETVI (Setaria viridis; Dosage 80 g/ha) | herbicidal activity STEME (Stellaria media) | herbicidal activity AMARE (Amaranthus retroflexus) | herbicidal activity ABUTH (Abutilon theophrasti) | herbicidal activity PHBPU (Pharbitis purpurea) | herbicidal action ALOMY (Alopecurus myosuroides; Dosage 80 g/ha) | herbicidal action SETVI (Setaria viridis; post-emergence, dosage 80 g/ha) | Herbicidal action against STEME (Stellaria media) | Herbicidal action against AMARE (Amaranthus retroflexus; 20 g of a.i./ha) | Herbicidal action against ALOMY (Alopecurus myosuroides; post-emergence, 5 g of a.i./ha) | herbicidal action ALOMY (Alopecurus myosuroides; post-emergence, dosage 80 g/ha) | Herbicidal action against SETVI (Setaria viridis; comparative experiment, post-emergence, 20 g of a.i./ha) | Herbicidal action against AMARE (Amaranthus retroflexus; 80 g of a.i./ha) | Herbicidal action against ABUTH (Abutilon theophrasti; comparative experiment, 80 g of a.i./ha) | Herbicidal action against ALOMY (Alopecurus myosuroides; post-emergence, 20 g of a.i./ha)
CCS(=O)(=O)Cc1c(C(F)F)ccc(C(=O)Nc2nnnn2C)c1Cl [Example 1-325] | 100 | 100% | 100% | 100% | 100% | 90 | – | – | – | – | – | – | – | – | –
CSCc1c(I)ccc(C(=O)Nc2nnnn2C)c1Cl [Example 1-362] | – | 100% | 100% | 100% | 80% | – | 90% | 90 | 90 | 70 | 90% | – | – | – | –
Cn1nnnc1NC(=O)c1ccc(I)c(CS(C)(=O)=O)c1Cl [Example 1-364] | 100 | 100% | 100% | 100% | 90% | 90 | – | 90 | 100 | – | – | – | – | – | –
CCSCc1c(C(F)(F)F)ccc(C(=O)Nc2nnnn2C)c1Br [Example 1-383] | – | 100% | 100% | 100% | 80% | – | 90% | – | – | – | 100% | 90 | 100 | 100 | 80
CCn1nnnc1NC(=O)c1ccc(C(F)(F)F)c(C[S+](C)[O-])c1SC (stereo not drawn) [Example 2-162] | 90 | 100% | 100% | 100% | 90% | 90 | – | – | – | – | – | – | – | – | –
CCn1nnnc1NC(=O)c1ccc(C(F)(F)F)c(CSC)c1Cl [Example 2-296] | – | 100% | 100% | 100% | 90% | – | 90% | – | – | – | 100% | – | – | – | –
CCn1nnnc1NC(=O)c1ccc(C(F)(F)F)c(C[S+](C)[O-])c1Cl (stereo not drawn) [Example 2-297] | – | 100% | 100% | 100% | 90% | – | 100% | – | – | – | 100% | – | – | – | –
CCn1nnnc1NC(=O)c1ccc(C(F)(F)F)c(CS(C)(=O)=O)c1Cl [Example 2-298] | 90 | 90% | 100% | 100% | 80% | 80 | – | – | – | – | – | – | – | – | –
CCSCc1c(C(F)(F)F)ccc(C(=O)Nc2nnnn2CC)c1Cl [Example 2-299] | – | 100% | 100% | 100% | 90% | – | 100% | – | – | – | 90% | – | – | – | –
CCn1nnnc1NC(=O)c1ccc(C(F)(F)F)c(C[S+]([O-])CC)c1Cl (stereo not drawn) [Example 2-300] | – | 100% | 100% | 100% | 100% | – | 100% | – | – | – | 90% | – | – | – | –
CCn1nnnc1NC(=O)c1ccc(C(F)(F)F)c(CSCCOC)c1Cl [Example 2-305] | – | 100% | 100% | 100% | 100% | – | 100% | – | – | – | 100% | – | – | – | –
CCn1nnnc1NC(=O)c1ccc(C(F)F)c(CSC)c1Cl [Example 2-320] | 100 | 100% | 100% | 100% | 80% | 100 | – | – | – | – | – | – | – | – | –
CCn1nnnc1NC(=O)c1ccc(C(F)F)c(CS(C)(=O)=O)c1Cl [Example 2-322] | – | 100% | 100% | 100% | 100% | – | 100% | – | – | – | 80% | – | – | – | –
CCSCc1c(C(F)F)ccc(C(=O)Nc2nnnn2CC)c1Cl [Example 2-323] | – | 100% | 100% | 100% | 90% | – | 100% | – | – | – | 80% | – | – | – | –
CCn1nnnc1NC(=O)c1ccc(C(F)F)c(C[S+]([O-])CC)c1Cl (stereo not drawn) [Example 2-324] | – | 100% | 100% | 100% | 100% | – | 90% | – | – | – | 90% | – | – | – | –
CCn1nnnc1NC(=O)c1ccc(C(F)F)c(CS(=O)(=O)CC)c1Cl [Example 2-325] | 100 | 100% | 100% | 100% | 100% | 80 | – | – | – | – | – | – | – | – | –
CCn1nnnc1NC(=O)c1ccc(I)c(C[S+](C)[O-])c1Cl (stereo not drawn) [Example 2-363] | 90 | 100% | 100% | 100% | 80% | 90 | – | – | – | – | – | – | – | – | –
CCn1nnnc1NC(=O)c1ccc(C(F)(F)F)c(C[S+]([O-])CC)c1Br (stereo not drawn) [Example 2-384] | – | 100% | 100% | 100% | 90% | – | 90% | – | – | – | 90% | – | – | – | –
CCn1nnnc1NC(=O)c1ccc(C(F)(F)F)c(CS(=O)(=O)CC)c1Br [Example 2-385] | – | 100% | 100% | 100% | 80% | – | 90% | – | – | – | 80% | – | – | – | –
CCCn1nnnc1NC(=O)c1ccc(C(F)(F)F)c(C[S+](C)[O-])c1SC (stereo not drawn) [Example 3-162] | – | 100% | 100% | 100% | 90% | – | 100% | – | – | – | 90% | – | – | – | –
CCCn1nnnc1NC(=O)c1ccc(C(F)(F)F)c(CS(C)(=O)=O)c1SC [Example 3-163] | 90 | 100% | 100% | 100% | 80% | 90 | – | – | – | – | – | – | – | – | –
C=CCSCc1c(C(F)(F)F)ccc(C(=O)Nc2nnnn2CCC)c1Cl [Example 3-308] | 100 | 100% | 100% | 100% | 100% | 100 | – | – | – | – | – | – | – | – | –
CCCn1nnnc1NC(=O)c1ccc(C(F)(F)F)c(CSCC2CC2)c1Cl [Example 3-314] | – | 100% | 100% | 100% | 80% | – | 100% | – | – | – | 100% | – | – | – | –
CCCn1nnnc1NC(=O)c1ccc(C(F)F)c(CSCC)c1Cl [Example 3-323] | 100 | 100% | 100% | 100% | 100% | 80 | – | – | – | – | – | – | – | – | –
CCCn1nnnc1NC(=O)c1ccc(C(F)(F)F)c(C[S+]([O-])CC)c1Br (stereo not drawn) [Example 3-384] | 100 | 90% | 100% | 100% | 90% | 80 | – | – | – | – | – | – | – | – | –

Source: patent US12492173B2, “Herbicidal substituted N-tetrazolyl aryl carboxamides” (Bayer Aktiengesellschaft, priority 2019, dated 2025)
